According to patent publication US20120029187A1, “HALOALKYLSULFONANILIDE DERIVATIVE” (Nissan Chemical Industries, Ltd., priority 2009, published 2012):

What was measured:
Format in all cases: in vivo
barnyardgrass [1] = assay: Test Example 1: herbicidal effects in preemergence treatment under submerged conditions; settings: dose 2.52 g/a
How it was run: (§1)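 Score 0–5 by mortality (5: ≥90%; 0: <5%), read 3 weeks post-application. Paddy-type cups: alluvial soil under 4 cm water, weeds seeded plus transplanted 2.5-leaf rice; diluted EC dosed onto water surface same day as sowing, g/a basis; greenhouse 25 to 30° C.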

bulrush [2] = assay: as above; settings: dose 2.52 g/a
How it was run: as §1

ducksalad [3] = assay: as above; settings: dose 2.52 g/a
How it was run: as §1

transplanted rice = assay: Test Example 1: preemergence treatment under submerged conditions, effect on crop; settings: dose 2.52 g/a
How it was run: as §1

barnyardgrass [4] = assay: Test Example 2: herbicidal effects during the vegetation period under submerged conditions; settings: treatment during the vegetation period under submerged conditions; dose 2.52 g/a
How it was run: (§2)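 Barnyardgrass, bulrush and ducksalad were co-sown in alluvial soil flooded to 4 cm and grown in a greenhouse at 25 to 30° C. At the 1- or 2-leaf stage, water-diluted emulsifiable concentrates went onto the water surface at set doses (g/a). Herbicidal effect was scored three weeks later on a graded scale.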

bulrush [5] = assay: as above; settings: treatment during the vegetation period under submerged conditions; dose 2.52 g/a
How it was run: as §2

ducksalad [6] = assay: as above; settings: treatment during the vegetation period under submerged conditions; dose 2.52 g/a
How it was run: as §2

Italian ryegrass [7] = assay: Test Example 4: herbicidal effect in foliage treatment; settings: dose 3.2 g/a, three weeks after the application
How it was run: (§3)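 Seeds were spot-sown in boxes of sterilized diluvial soil and raised in a greenhouse (25 to 30° C) for 14 days before a single foliar application. Compounds were applied as emulsifiable concentrates diluted with water, at predetermined doses in g/a. Injury was graded three weeks post-spray.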

barnyardgrass [8] = assay: as above; settings: dose 3.2 g/a, three weeks after the application
How it was run: as §3

beadstraw = assay: as above; settings: dose 3.2 g/a, three weeks after the application
How it was run: as §3

common chickweed [9] = assay: as above; settings: dose 3.2 g/a, three weeks after the application
How it was run: as §3

common lambsquater [10] = assay: as above; settings: dose 3.2 g/a, three weeks after the application
How it was run: as §3

common ragweed [11] = assay: as above; settings: dose 3.2 g/a, three weeks after the application
How it was run: as §3

giant foxtail [12] = assay: as above; settings: dose 3.2 g/a, three weeks after the application
How it was run: as §3

large crabgrass [13] = assay: as above; settings: dose 3.2 g/a, three weeks after the application
How it was run: as §3

posumbu knotweed [14] = assay: as above; settings: dose 3.2 g/a, three weeks after the application
How it was run: as §3

redroot pigweed [15] = assay: as above; settings: dose 3.2 g/a, three weeks after the application
How it was run: as §3

velvetleaf [16] = assay: as above; settings: dose 3.2 g/a, three weeks after the application
How it was run: as §3

water foxtail [17] = assay: as above; settings: dose 3.2 g/a, three weeks after the application
How it was run: as §3

wild oat = assay: as above; settings: dose 3.2 g/a, three weeks after the application
How it was run: as §3

Italian ryegrass [18] = assay: Test Example 3: herbicidal effects in soil treatment; settings: dose 3.2 g/a
How it was run: (§4)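 Seeds were sown in sterilized diluvial soil and covered with about 1.5 cm of soil. Compounds, formulated as emulsifiable concentrates and diluted with water, were sprayed evenly over the soil surface at set doses in g/a. Herbicidal effect was scored on a rating scale three weeks later.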

barnyardgrass [19] = assay: as above; settings: dose 3.2 g/a
How it was run: as §4

common chickweed [20] = assay: as above; settings: dose 3.2 g/a
How it was run: as §4

common lambsquater [21] = assay: as above; settings: dose 3.2 g/a
How it was run: as §4

common ragweed [22] = assay: as above; settings: dose 3.2 g/a
How it was run: as §4

giant foxtail [23] = assay: as above; settings: dose 3.2 g/a
How it was run: as §4

large crabgrass [24] = assay: as above; settings: dose 3.2 g/a
How it was run: as §4

posumbu knotweed [25] = assay: as above; settings: dose 3.2 g/a
How it was run: as §4

redroot pigweed [26] = assay: as above; settings: dose 3.2 g/a
How it was run: as §4

velvetleaf [27] = assay: as above; settings: dose 3.2 g/a
How it was run: as §4

water foxtail [28] = assay: as above; settings: dose 3.2 g/a
How it was run: as §4

Row | SMILES | A: barnyardgrass, herbicidal effect (evaluation scale 0-5) (barnyardgrass [1]) | B: bulrush, herbicidal effect (evaluation scale 0-5) (bulrush [2]) | C: ducksalad, herbicidal effect (evaluation scale 0-5) (ducksalad [3]) | a: transplanted rice, effect on crop (evaluation scale 0-5) (transplanted rice) | A: barnyardgrass, herbicidal effect (evaluation scale 0-5) (barnyardgrass [4]) | B: bulrush, herbicidal effect (evaluation scale 0-5) (bulrush [5]) | C: ducksalad, herbicidal effect (evaluation scale 0-5) (ducksalad [6]) | H: Italian ryegrass, herbicidal effect (Italian ryegrass [7]) | A: barnyardgrass, herbicidal effect (barnyardgrass [8]) | O: beadstraw, herbicidal effect (beadstraw) | N: common chickweed, herbicidal effect (common chickweed [9]) | L: common lambsquater, herbicidal effect (common lambsquater [10]) | J: common ragweed, herbicidal effect (common ragweed [11]) | E: giant foxtail, herbicidal effect (giant foxtail [12]) | D: large crabgrass, herbicidal effect (large crabgrass [13]) | M: posumbu knotweed, herbicidal effect (posumbu knotweed [14]) | K: redroot pigweed, herbicidal effect (redroot pigweed [15]) | I: velvetleaf, herbicidal effect (velvetleaf [16]) | G: water foxtail, herbicidal effect (water foxtail [17]) | herbicidal effect, H: Italian ryegrass (Italian ryegrass [18]) | further results
1 | CCOC(=O)N(c1ccccc1CN1COC(C)(C(F)(F)F)C(Br)C1=O)S(=O)(=O)C(F)(F)F (centres unmarked) [II-75] | 5 (mortality of 90% or above (nearly complete death)) | 5 (mortality of 90% or above (nearly complete death)) | 5 (mortality of 90% or above (nearly complete death)) | 0 (mortality of less than 5% (almost ineffective)) | 5 (mortality of 90% or above (nearly complete death)) | 5 (mortality of 90% or above (nearly complete death)) | 5 (mortality of 90% or above (nearly complete death)) | 3 (mortality of at least 40% and less than 70%) | 4 (mortality of at least 70% and less than 90%) | 5 (mortality of 90% or above (nearly complete death)) | 3 (mortality of at least 40% and less than 70%) | 4 (mortality of at least 70% and less than 90%) | 0 (mortality of less than 5% (almost ineffective)) | 1 (mortality of at least 5% and less than 20%) | 1 (mortality of at least 5% and less than 20%) | 1 (mortality of at least 5% and less than 20%) | 3 (mortality of at least 40% and less than 70%) | 3 (mortality of at least 40% and less than 70%) | 2 (mortality of at least 20% and less than 40%) |  | F: wild oat, herbicidal effect (wild oat): 0 (mortality of less than 5% (almost ineffective))
2 | CCC1CON(Cc2ccccc2N(C(=O)OCCCl)S(=O)(=O)C(F)(F)F)C(=O)O1 (centres unmarked) [III-7] | 5 (mortality of 90% or above (nearly complete death)) | 5 (mortality of 90% or above (nearly complete death)) | 5 (mortality of 90% or above (nearly complete death)) | 0 (mortality of less than 5% (almost ineffective)) | 5 (mortality of 90% or above (nearly complete death)) | 5 (mortality of 90% or above (nearly complete death)) | 5 (mortality of 90% or above (nearly complete death)) | 0 (mortality of less than 5% (almost ineffective)) | 5 (mortality of 90% or above (nearly complete death)) | 2 (mortality of at least 20% and less than 40%) | 3 (mortality of at least 40% and less than 70%) | 4 (mortality of at least 70% and less than 90%) | 4 (mortality of at least 70% and less than 90%) | 3 (mortality of at least 40% and less than 70%) | 3 (mortality of at least 40% and less than 70%) | 0 (mortality of less than 5% (almost ineffective)) | 3 (mortality of at least 40% and less than 70%) | 0 (mortality of less than 5% (almost ineffective)) | 5 (mortality of 90% or above (nearly complete death)) | 4 (mortality of at least 70% and less than 90%) | herbicidal effect, A: barnyardgrass (barnyardgrass [19]): 5 (mortality of 90% or above (nearly complete death)); herbicidal effect, N: common chickweed (common chickweed [20]): 5 (mortality of 90% or above (nearly complete death)); herbicidal effect, L: common lambsquater (common lambsquater [21]): 4 (mortality of at least 70% and less than 90%); herbicidal effect, J: common ragweed (common ragweed [22]): 4 (mortality of at least 70% and less than 90%); herbicidal effect, E: giant foxtail (giant foxtail [23]): 5 (mortality of 90% or above (nearly complete death)); herbicidal effect, D: large crabgrass (large crabgrass [24]): 5 (mortality of 90% or above (nearly complete death)); herbicidal effect, M: posumbu knotweed (posumbu knotweed [25]): 4 (mortality of at least 70% and less than 90%); herbicidal effect, K: redroot pigweed (redroot pigweed [26]): 1 (mortality of at least 5% and less than 20%); herbicidal effect, I: velvetleaf (velvetleaf [27]): 0 (mortality of less than 5% (almost ineffective)); herbicidal effect, G: water foxtail (water foxtail [28]): 5 (mortality of 90% or above (nearly complete death))
3 | CCOC(=O)N(c1ccccc1CN1OCC(C)(C)OC1=O)S(=O)(=O)C(F)(F)F [III-11] | 5 (mortality of 90% or above (nearly complete death)) | 5 (mortality of 90% or above (nearly complete death)) | 5 (mortality of 90% or above (nearly complete death)) | 0 (mortality of less than 5% (almost ineffective)) | 5 (mortality of 90% or above (nearly complete death)) | 5 (mortality of 90% or above (nearly complete death)) | 5 (mortality of 90% or above (nearly complete death)) | 3 (mortality of at least 40% and less than 70%) | 5 (mortality of 90% or above (nearly complete death)) | 5 (mortality of 90% or above (nearly complete death)) | 5 (mortality of 90% or above (nearly complete death)) | 4 (mortality of at least 70% and less than 90%) | 4 (mortality of at least 70% and less than 90%) | 4 (mortality of at least 70% and less than 90%) | 0 (mortality of less than 5% (almost ineffective)) | 4 (mortality of at least 70% and less than 90%) | 2 (mortality of at least 20% and less than 40%) | 4 (mortality of at least 70% and less than 90%) | 5 (mortality of 90% or above (nearly complete death)) | 4 (mortality of at least 70% and less than 90%) | herbicidal effect, A: barnyardgrass (barnyardgrass [19]): 5 (mortality of 90% or above (nearly complete death)); herbicidal effect, N: common chickweed (common chickweed [20]): 5 (mortality of 90% or above (nearly complete death)); herbicidal effect, L: common lambsquater (common lambsquater [21]): 5 (mortality of 90% or above (nearly complete death)); herbicidal effect, J: common ragweed (common ragweed [22]): 5 (mortality of 90% or above (nearly complete death)); herbicidal effect, E: giant foxtail (giant foxtail [23]): 5 (mortality of 90% or above (nearly complete death)); herbicidal effect, D: large crabgrass (large crabgrass [24]): 5 (mortality of 90% or above (nearly complete death)); herbicidal effect, M: posumbu knotweed (posumbu knotweed [25]): 5 (mortality of 90% or above (nearly complete death)); herbicidal effect, K: redroot pigweed (redroot pigweed [26]): 3 (mortality of at least 40% and less than 70%); herbicidal effect, I: velvetleaf (velvetleaf [27]): 4 (mortality of at least 70% and less than 90%); herbicidal effect, G: water foxtail (water foxtail [28]): 5 (mortality of 90% or above (nearly complete death))
